The text below walks through data of DBAASP.

Holding throughout (assay): ≥ marks a high value that may be exact or a test limit, other limits are often not marked, values filed in µg/mL are converted to µM
The test system of assay [1] is Pseudomonas aeruginosa ATCC 9027.
Assay [2] deals with Staphylococcus aureus ATCC 6538.
Assay [3] concerns Escherichia coli ATCC 25922.
For assay [4], the system named is Staphylococcus aureus NCTC 8325.
For assay [5], the system named is Candida albicans ATCC 90028.

Converted amounts (≈) assume the structure as drawn.

Turning to `CC(C)C[C@H](NC(=O)[C@H](C)NC(=O)[C@H](CCCCN)NC(=O)[C@H](CCCCN)NC(=O)[C@H](CC(C)C)NC(=O)[C@H](C)NC(=O)[C@H](CCCCN)NC(=O)[C@H](CC(C)C)NC(=O)[C@H](C)NC(=O)[C@H](CCCCN)NC(=O)[C@H](CCCCN)NC(=O)[C@H](CC(C)C)NC(=O)[C@H](C)NC(=O)[C@H](CC(C)C)NC(=O)[C@H](C)NC(=O)[C@@H](N)Cc1ccccc1)C(N)=O` [FALALKKALKALKKAL], the MIC in assay [1] is 28.9 µM (≈ 50 µg/mL); in assay [2], 2.89 µM (≈ 5 µg/mL).
On to `CC[C@H](C)[C@H](NC(=O)[C@H](CCCCN)NC(=O)[C@H](CS)NC(=O)[C@H](Cc1ccccc1)NC(=O)[C@@H](NC(=O)CNC(=O)[C@@H](NC(=O)[C@@H]1CCCN1C(=O)[C@H](Cc1ccccc1)NC(=O)[C@@H](N)Cc1ccccc1)[C@@H](C)CC)C(C)C)C(=O)N[C@@H](Cc1ccccc1)C(=O)N[C@@H](CCCCN)C(=O)N[C@H](C(=O)N[C@@H](CS)C(=O)O)[C@@H](C)O` [FFPIGVFCKIFKTC], for which the values for the MIC in assay [3] and in assay [4] were 30 µM (≈ 49.5 µg/mL) and at least 100 µM, respectively.
Take `CC[C@H](C)[C@@H]1NC(=O)[C@H](C)NC(=O)[C@@H](NC(=O)[C@H](Cc2ccccc2)NC(=O)[C@@H](NC(=O)[C@H](CCCCN)NC(=O)[C@@H]2CCCN2C(=O)[C@H](Cc2ccccc2)NC(=O)[C@@H](NC(=O)[C@H](CCCCN)NC(=O)[C@H](C)NC(=O)[C@H](C)NC(=O)[C@@H](NC(=O)CNC(=O)[C@H](C)NC(=O)[C@@H](NC(=O)[C@@H](NC(=O)[C@@H]2CCCN2C(=O)[C@H](CC(C)C)NC(=O)[C@@H](N)Cc2ccccc2)[C@@H](C)CC)[C@@H](C)CC)C(C)C)C(C)C)[C@@H](C)CC)CSSC[C@@H](C(=O)O)NC(=O)[C@H](CCCCN)NC(=O)[C@H](CCCCN)NC(=O)[C@H](CO)NC1=O` [FLPIIAGVAAKVFPKIFCAISKKC]: the MIC is 5 µM (≈ 12.8 µg/mL) in assay [5], 14 µM (≈ 35.9 µg/mL) in assay [3] and 7 µM (≈ 17.9 µg/mL) in assay [4].
The compound `CC[C@H](C)[C@H](NC(=O)[C@H](CC(C)C)NC(=O)[C@H](CO)NC(=O)[C@H](C)NC(=O)[C@H](Cc1ccccc1)NC(=O)[C@H](CC(C)C)NC(=O)[C@@H]1CCCN1C(=O)[C@H](CC(C)C)NC(=O)[C@@H](N)Cc1ccccc1)C(=O)NCC(=O)N[C@@H](CCCCN)C(=O)N[C@@H](CC(C)C)C(=O)N[C@@H](CC(C)C)C(N)=O` [FLPLFASLIGKLL] came in with an MIC in assay [4] of at least 140 µM.
For the compound `CC[C@H](C)[C@H](NC(=O)[C@H](CC(C)C)NC(=O)[C@H](CC(=O)O)NC(=O)[C@H](CO)NC(=O)[C@@H](NC(=O)[C@H](C)NC(=O)[C@H](CCCCN)NC(=O)[C@@H](NC(=O)[C@H](C)NC(=O)[C@H](Cc1cnc[nH]1)NC(=O)[C@@H]1CCCN1C(=O)[C@@H](NC(=O)[C@H](CC(C)C)NC(=O)[C@@H]1CCCN1C(=O)CNC(=O)[C@@H](NC(=O)[C@H](Cc1ccc(O)cc1)NC(=O)[C@H](CCCCN)NC(=O)[C@H](CCSC)NC(=O)[C@H](Cc1ccccc1)NC(=O)CN)[C@@H](C)CC)[C@@H](C)CC)C(C)C)[C@@H](C)CC)C(=O)O` [GFMKYIGPLIPHAVKAISDLI], the MIC in assay [5] is at least 200 µM; in assay [3] it was 25 µM (≈ 57.1 µg/mL); in assay [4], at least 100 µM.
For `CC[C@H](C)[C@H](NC(=O)[C@H](CC(C)C)NC(=O)[C@H](CC(=O)O)NC(=O)[C@H](CO)NC(=O)[C@@H](NC(=O)[C@H](C)NC(=O)[C@H](CCCCN)NC(=O)[C@@H](NC(=O)[C@H](CCCCN)NC(=O)[C@H](Cc1cnc[nH]1)NC(=O)[C@@H]1CCCN1C(=O)[C@@H](NC(=O)[C@H](CC(C)C)NC(=O)[C@@H]1CCCN1C(=O)CNC(=O)[C@@H](NC(=O)[C@H](Cc1ccc(O)cc1)NC(=O)[C@H](CCCCN)NC(=O)[C@H](CCSC)NC(=O)[C@H](Cc1ccccc1)NC(=O)CN)[C@@H](C)CC)[C@@H](C)CC)C(C)C)[C@@H](C)CC)C(N)=O` [GFMKYIGPLIPHKVKAISDLI], the results for the MIC in assay [5], in assay [3] and in assay [4] were at least 200 µM, 100 µM (≈ 234 µg/mL) and at least 200 µM, respectively.
Take `CC[C@H](C)[C@H](NC(=O)[C@H](CC(C)C)NC(=O)[C@H](CCCCN)NC(=O)[C@H](CO)NC(=O)[C@@H](NC(=O)[C@H](C)NC(=O)[C@H](CCCCN)NC(=O)[C@@H](NC(=O)[C@H](C)NC(=O)[C@H](Cc1cnc[nH]1)NC(=O)[C@@H]1CCCN1C(=O)[C@@H](NC(=O)[C@H](CC(C)C)NC(=O)[C@@H]1CCCN1C(=O)[C@H](CCCCN)NC(=O)[C@@H](NC(=O)[C@H](Cc1ccc(O)cc1)NC(=O)[C@H](CCCCN)NC(=O)[C@H](CCSC)NC(=O)[C@H](Cc1ccccc1)NC(=O)CN)[C@@H](C)CC)[C@@H](C)CC)C(C)C)[C@@H](C)CC)C(=O)O` [GFMKYIKPLIPHAVKAISKLI]: the MIC in assay [5] is at least 50 µM; in assay [3] it was 12.5 µM (≈ 29.6 µg/mL); in assay [4], 25 µM (≈ 59.2 µg/mL).
As for `CSCC[C@H](NC(=O)[C@H](CC(C)C)NC(=O)[C@H](CO)NC(=O)CNC(=O)[C@H](C)NC(=O)[C@@H](NC(=O)[C@H](CC(N)=O)NC(=O)[C@H](CCCCN)NC(=O)[C@H](CC(C)C)NC(=O)[C@@H](NC(=O)[C@H](CC(N)=O)NC(=O)[C@H](CCCCN)NC(=O)CNC(=O)[C@@H](NC(=O)[C@H](CCCCN)NC(=O)[C@H](CCCCN)NC(=O)[C@H](Cc1ccccc1)NC(=O)[C@H](C)NC(=O)[C@H](CO)NC(=O)[C@H](Cc1ccccc1)NC(=O)[C@H](CC(C)C)NC(=O)CN)C(C)C)C(C)C)C(C)C)C(=O)N[C@@H](CC(=O)O)C(=O)N[C@@H](CC(N)=O)C(=O)N[C@@H](CC(C)C)C(=O)N[C@@H](CCCCN)C(=O)N[C@H]1CSSC[C@@H](C(=O)O)NC(=O)[C@H](CCC(=O)O)NC(=O)CNC(=O)[C@H](CO)NC(=O)[C@H](C(C)C)NC(=O)[C@H](CCCCN)NC1=O` [GLFSAFKKVGKNVLKNVAGSLMDNLKCKVSGEC], the figures for the minimum inhibitory concentration (MIC) in assay [3] and in assay [4] were 3 µM (≈ 10.5 µg/mL) and at least 50 µM, respectively.
Consider `CC[C@H](C)[C@H](NC(=O)CNC(=O)[C@H](CCC(N)=O)NC(=O)[C@H](Cc1ccccc1)NC(=O)[C@@H](NC(=O)[C@H](CCCCN)NC(=O)[C@H](CCCCN)NC(=O)[C@H](CC(C)C)NC(=O)[C@H](C)NC(=O)[C@H](CCCCN)NC(=O)[C@H](CC(C)C)NC(=O)CN)C(C)C)C(=O)N[C@@H](Cc1cnc[nH]1)C(=O)N[C@@H](CCC(=O)O)C(=O)N[C@@H](C)C(=O)N[C@H](C(=O)N[C@@H](CCCCN)C(=O)N[C@@H](CC(C)C)C(=O)N[C@H](C(=O)N[C@@H](CC(N)=O)C(=O)N[C@@H](CC(N)=O)C(=O)N[C@@H](Cc1cnc[nH]1)C(=O)N[C@H](C(=O)N[C@@H](CCC(N)=O)C(=O)O)C(C)C)[C@@H](C)CC)[C@@H](C)CC` [GLKALKKVFQGIHEAIKLINNHVQ], for which the figures for the minimum inhibitory concentration (MIC) in assay [3] and in assay [4] were 10 µM (≈ 27 µg/mL) and at least 80 µM, respectively.
As to `CC[C@H](C)[C@H](NC(=O)CNC(=O)[C@H](CCC(N)=O)NC(=O)[C@H](Cc1ccccc1)NC(=O)[C@@H](NC(=O)[C@H](CCCCN)NC(=O)[C@H](CCCCN)NC(=O)[C@H](CC(C)C)NC(=O)[C@H](C)NC(=O)[C@H](CC(N)=O)NC(=O)[C@H](CC(C)C)NC(=O)CN)C(C)C)C(=O)N[C@@H](Cc1cnc[nH]1)C(=O)N[C@@H](CCC(=O)O)C(=O)N[C@@H](C)C(=O)N[C@@H](Cc1ccccc1)C(=O)N[C@@H](CCCCN)C(=O)N[C@@H](CC(C)C)C(=O)N[C@H](C(=O)N[C@@H](CC(N)=O)C(=O)N[C@@H](CC(N)=O)C(=O)N[C@@H](Cc1cnc[nH]1)C(=O)N[C@H](C(=O)N[C@@H](CCC(N)=O)C(=O)O)C(C)C)[C@@H](C)CC` [GLNALKKVFQGIHEAFKLINNHVQ], the results for the minimum inhibitory concentration (MIC) in assay [3] and in assay [4] were 20 µM (≈ 54.4 µg/mL) and at least 160 µM, respectively.
As for `CC[C@H](C)[C@H](NC(=O)CNC(=O)[C@H](CCC(N)=O)NC(=O)[C@H](Cc1ccccc1)NC(=O)[C@@H](NC(=O)[C@H](CCCCN)NC(=O)[C@H](CCCCN)NC(=O)[C@H](CC(C)C)NC(=O)[C@H](C)NC(=O)[C@H](CC(N)=O)NC(=O)[C@H](CC(C)C)NC(=O)CN)C(C)C)C(=O)N[C@@H](Cc1cnc[nH]1)C(=O)N[C@@H](CCC(=O)O)C(=O)N[C@@H](C)C(=O)N[C@H](C(=O)N[C@@H](CCCCN)C(=O)N[C@@H](CC(C)C)C(=O)N[C@@H](Cc1ccccc1)C(=O)N[C@@H](CC(N)=O)C(=O)N[C@@H](CC(N)=O)C(=O)N[C@@H](Cc1cnc[nH]1)C(=O)N[C@H](C(=O)N[C@@H](CCC(N)=O)C(=O)O)C(C)C)[C@@H](C)CC` [GLNALKKVFQGIHEAIKLFNNHVQ], the values for the MIC in assay [3] and in assay [4] were 10 µM (≈ 27.2 µg/mL) and at least 160 µM, respectively.
In assay [2], `CC(C)C[C@H](NC(=O)CNC(=O)[C@@H](NC(=O)[C@@H]1CCCN1C(=O)[C@H](CC(C)C)NC(=O)CNC(=O)[C@H](CC(N)=O)NC(=O)[C@H](CC(N)=O)NC(=O)[C@H](Cc1ccc(O)cc1)NC(=O)[C@@H](NC(=O)[C@H](CCCN=C(N)N)NC(=O)[C@H](CS)NC(=O)[C@H](CCCN=C(N)N)NC(=O)[C@H](Cc1cnc[nH]1)NC(=O)[C@@H](N)CCCCN)C(C)C)[C@@H](C)O)C(=O)N[C@@H](Cc1ccc(O)cc1)C(=O)N[C@@H](CCCN=C(N)N)C(=O)N[C@@H](Cc1c[nH]c2ccccc12)C(=O)N[C@@H](CS)C(N)=O` [KHRCRVYNNGLPTGLYRWC] returned an MIC of 4.8 µM (≈ 11.2 µg/mL).
Turning to `CC[C@H](C)[C@H](NC(=O)[C@H](CCCCN)NC(=O)[C@H](CCCCN)NC(=O)[C@H](C)NC(=O)[C@H](CC(C)C)NC(=O)[C@H](CC(N)=O)NC(=O)[C@@H](NC(=O)[C@H](CC(C)C)NC(=O)[C@@H](NC(=O)CNC(=O)[C@H](CC(C)C)NC(=O)[C@H](Cc1ccccc1)NC(=O)[C@@H](N)CC(N)=O)[C@@H](C)O)[C@@H](C)CC)C(=O)N[C@@H](CCSC)C(N)=O` [NFLGTLINLAKKIM], the figures for the MIC in assay [5], in assay [3] and in assay [4] were at least 150 µM, over 150 µM and at least 48 µM, respectively.
Take `CC(C)C[C@H](NC(=O)[C@H](C)NC(=O)[C@H](CCCCN)NC(=O)[C@H](CCCCN)NC(=O)[C@H](CC(C)C)NC(=O)[C@H](C)NC(=O)[C@H](CCCCN)NC(=O)[C@H](CCCCN)NC(=O)[C@H](CC(C)C)NC(=O)[C@H](CCCCN)NC(=O)[C@H](CCCCN)NC(=O)[C@H](CC(C)C)NC(=O)[C@H](C)NC(=O)[C@H](CCCCN)NC(=O)[C@H](CCCCN)NC(=O)[C@H](CC(C)C)NC(=O)[C@H](C)NC(=O)[C@H](CCCCN)NC(=O)[C@H](CC(C)C)NC(=O)[C@H](C)NC(=O)[C@H](CC(C)C)NC(=O)[C@H](C)NC(=O)[C@@H](N)C(C)C)C(N)=O` [VALALKALKKALKKLKKALKKAL]: the MIC in assay [1] and in assay [2] was over 80.3 µM throughout.

The MIC is the lowest concentration that inhibits growth of the organism.
